Patent US11213512B2, “Bis-amino acid based compound and use thereof” (THE CURATORS OF THE UNIVERSITY OF MISSOURI, priority 2016, dated 2022)

Tests used:
HEK-293 cells [1] = experiment: Cytotoxicity to mammalian cells, XTT assay; type: cell-based, human; conditions: 24 h; for cytotoxicity to HEK-293 (in words): at MIC against Tet^R E. coli (2: 48, 7: 128, 10: 10 μM); for survival of HEK-293 (in words): two-fold increase over MIC concentration
Experimental: It was initially hypothesized that antimicrobial activity resulted from membrane disruption. Membrane active compounds are often cytotoxic to mammalian cells (Shai, Biopolymers 2002, 66, 236-48; Shai, et al., Curr. Protein Pept. Sci. 2006, 7, 479-86). The survival of three mammalian epithelial cell lines was assayed for 2, 3, 5, and 10. […] The cell lines studied were human embryonic kidney (HEK-293), human cervix epithelial (HeLa, ATCC Accession No. CCL-2), and Cercopithecus aethiops kidney (Cos-7, ATCC Accession No. CRL 1651). HeLa cells were acquired from ATCC. Cos-7 and HEK-293 cells were donated by colleagues. Cell lines were regularly maintained in growth media containing DMEM (ATCC), 10% fetal bovine serum (FBS, ATCC) and 1% penicillin-streptomycin solution (ATCC). Adherent HEK-293, HeLa and Cos-7 cells were trypsinized using 0.25% (w/v) trypsin-EDTA (Sigma-Aldrich), suspended in a fresh media and diluted to get a concentration of 3×10^5 cells/ml. Cells were seeded in a 96-well plate (100 μL/well) to get 3×10^4 cells/well. The plates were incubated for 24 hours at 5% CO2 and 37° C. to reach a confluency of 80-90%.
In a sterile 1.5 mL micro-centrifuge tube, compounds 2, 3, 5, 6, 7 and 10 (0.5% DMSO) were mixed with assay media (DMEM+10% FBS) and serially diluted by 2-fold each to get 2[MIC], [MIC], ½[MIC] and ¼ [MIC] concentrations. A control containing 0.5% DMSO was also prepared. After 24 hours, the spent media in the 96-well plate containing HEK-293, HeLa and Cos-7 cells (90% confluency) was replaced with 100 μL media containing the compounds 2, 3, 5, 6, 7 and 10 at various concentrations. The cells were incubated at 37° C. and 5% CO2 for 24 hours before performing XTT assay (Sigma-Aldrich). The XTT assay was performed according to the manufacturer's protocol. After 24 hours of treatment with compounds, the media was replaced with PBS and 25 μL XTT was added to each well. The XTT assay works by the reduction of tetrazolium compound by alive cells to the colored soluble formazan product. The absorbance of the product was measured at 450 nm (XTT) and 690 nm (background). Percent survival was calculated by comparing the average absorbance of cells treated with compounds 2, 3, 5, 6, 7, and 10 to that of cells alone. Two replicates for each treatment were determined. Average percent survival and standard deviation were calculated.
Cells were cultured for 24 h in 96-well plates and treated with media containing concentrations using [MIC] and [MIC]×2 determined previously for Tet^R E. coli. The number of surviving cells was determined using an XTT assay (Sigma-Aldrich); the results are represented as percent survival in FIG. 2. Cells alone were used as controls and established 100% survival. The data represent two replicates of three trials and the error bars represent the standard deviation.

Tet^R E. coli = experiment: Membrane permeability and viability, confocal microscopy (propidium iodide / fluorescein diacetate); type: cell-based, Escherichia coli; conditions: 2 at 24 μM, 10 at 6 μM (~½ MIC), 30 min
Experimental: To test the membrane permeability of the Tet^R E. coli, the bacteria was first grown overnight from one CFU in media containing 100 μg/mL Ampicillin at 37° C. and 200 RPM. Tet^R E. coli was then knocked back to O.D. 600 nm=0.550 before use. In a sterile test tube, cells were added followed by either compounds 2 or 10 at half-MIC concentrations and incubated at 37° C. and 200 RPM. The concentration of DMSO was kept constant at 0.5% —by volume in each case. After 30 minutes of incubation, the cells were washed by centrifugation at 3000×g for 5 minutes and re-suspended in sterile phosphate buffered saline (PBS). Propidium iodide (30 μM, Thermo-Fischer) and fluorescein diacetate (60 μM, Sigma-Aldrich) were added to the Tet^R E. coli cells in the PBS, mixed by vortexing and incubated at 37° C. and 200 RPM. After 30 minutes, the cells were washed again by centrifugation at 3000×g for 5 minutes. The pellet was suspended in a fresh PBS, loaded onto a clean glass slide, covered with a cover slip and observed under Zeiss LSM 700 confocal microscope.
The study was designed to assess the membrane permeability and viability of the E. coli in the presence of BTs 2 and 10. The three panels in FIG. 6 show the bright field (BF) microscopic images (top row), the result when fluorescein diacetate (FDA) is present (middle row), and the presence of propidium iodide (PI, bottom row), if any. […] When it does, it intercalates in DNA, which leads to enhanced fluorescence. Fluorescein diacetate is incorporated into the cells during growth, but is not fluorescent. If the organism is or remains vital, the diester will be hydrolyzed and fluorescein will be observed by its fluorescence emission.
Controls for the permeability/viability assay were included for E. coli in the presence of a final concentration of 0.5% (v/v) DMSO (the vehicle for administration of BTs), and a final concentration of 0.1% […] Triton X-100. […] Thus, less than or equal to 0.5% DMSO (v/v) was always used; the control is shown in the second column. Triton X-100 is a potent detergent, which was used at 0.1% or ˜1,670 μM.

HEK-293 cells [2] = experiment: Mammalian cell permeability and vitality, confocal microscopy (propidium iodide / fluorescein diacetate); type: cell-based, human; conditions: 2 hours
Experimental: To test the permeability of HEK-293 cells, the cells were cultured in growth medium as described above. HEK-293 (90% confluent) were then seeded in a 96-well plate to get 30,000 cells/well. After 24 hours of incubation at 37° C. and 5% CO2, the spent media was replaced with media (DMEM and 10% FBS) containing compound 2 at either 20 μM or 80 μM. […] Triton X-100 at 0.1%—by volume (1670 μM) and DMSO 0.5% (v/v) were also used as controls. After 2 hours of incubation, spent media was replaced with PBS containing propidium iodide (30 μM) and fluorescein diacetate (60 μM) and incubated at 37° C. and 5% CO2. After 2 hour of incubation, the spend media was replaced with fresh PBS and the cells were observed under Zeiss LSM 700 confocal microscope. The images were reported without any alterations. The gain and the intensity in all the images were kept constant.
A compound that inhibits bacterial growth and penetrates into the microbe's cytosol may also penetrate into mammalian cells. A similar microscopic study was conducted with the human embryonic kidney (HEK-293) cell line. In this case, only compound 2 was studied. […] The microscopic study was therefore conducted at 20 μM, a value well below any inhibitory concentration, and at 80 μM, a concentration above all three MIC values. The 80 μM concentration was used to confirm the […] of 2 and to establish the lack of serum inhibition.

[3] = at MIC against Tet^R E. coli (2: 48, 3: 28, 5: 56, 6: 120, 7: 128, 10: 10 μM)
[4] = at twice the MIC (FIG. 3 legend: 2: 96, 3: 56, 5: 112, 6: 240, 7: 256, 10: 20 μM)

Structure (SMILES) | percent survival HEK-293 (HEK-293 cells [1]; [3]) | percent survival HEK-293 (HEK-293 cells [1]; [4]) | cytotoxicity to HEK-293 (in words) (HEK-293 cells [1]) | survival of HEK-293 (in words) (HEK-293 cells [1]) | viability (fluorescein diacetate fluorescence) (Tet^R E. coli) | cellular vitality (FDA fluorescence) (HEK-293 cells [2]; 20 μM) | cellular vitality (FDA fluorescence) (HEK-293 cells [2]; 80 μM)
Cl.Cl.N[C@@H](Cc1c[nH]c2ccccc12)C(=O)Nc1ccc(NC(=O)[C@@H](N)Cc2c[nH]c3ccccc23)cc1 [Compound 6, (2S,2′S)-1,1′-(1,4-Phenylenebis(azanediyl))bis(3-(1H-indol-3-yl)-1-oxopropan-2-aminium) chloride] | 100% | 61% |  |  |  |  | 
Cl.Cl.N[C@H](Cc1c[nH]c2ccccc12)C(=O)Nc1cccc(NC(=O)[C@H](N)Cc2c[nH]c3ccccc23)c1 [Compound 3, (2R,2′R)-1,1′-(1,3-Phenylenebis(azanediyl))bis(3-(1H-indol-3-yl)-1-oxopropan-2-aminium) chloride] | 100% | 62% |  |  |  |  | 
Cl.Cl.N[C@@H](Cc1c[nH]c2ccccc12)C(=O)Nc1cccc(NC(=O)[C@@H](N)Cc2c[nH]c3ccccc23)c1 [Compound 2, (2S,2′S)-1,1′-(1,3-Phenylenebis(azanediyl))bis(3-(1H-indol-3-yl)-1-oxopropan-2-aminium) chloride] | 100% |  | no cytotoxicity | unaffected | vital | no loss of vitality | some toxic effect was apparent
Cl.Cl.N[C@@H](Cc1c[nH]c2ccccc12)C(=O)NCCCNC(=O)[C@@H](N)Cc1c[nH]c2ccccc12 [Compound 7, (2S,2′S)-1,1′-(Propane-1,3-diylbis(azanediyl))bis(3-(1H-indol-3-yl)-1-oxopropan-2-aminium) chloride] |  |  | minimally toxic |  |  |  | 
Cl.Cl.N[C@@H](Cc1c[nH]c2ccccc12)C(=O)Nc1ccccc1NC(=O)[C@@H](N)Cc1c[nH]c2ccccc12 [Compound 5, (2S,2′S)-1,1′-(1,2-Phenylenebis(azanediyl))bis(3-(1H-indol-3-yl)-1-oxopropan-2-aminium) chloride] | 100% |  |  | unaffected |  |  | 
Cl.Cl.N[C@H](Cc1c[nH]c2ccccc12)C(=O)NCCCCCCCCCCCCNC(=O)[C@@H](N)Cc1c[nH]c2ccccc12 [Compound 10, (S)-1-((12-((R)-2-Ammonio-3-(1H-indol-3-yl)propanamido)dodecyl)amino)-3-(1H-indol-3-yl)-1-oxopropan-2-aminium chloride] |  |  | minimally toxic |  | vital |  | 
